This note sets out measurements from US20100093714A1, “AMIDES OF THIENO[2,3-d]PYRIMIDINE AND THEIR USE AS ADENOSINE A2a RECEPTOR ANTAGONISTS” (priority 2008, published 2010).

Where a name gives a salt, the structure may show the parent alone. Where only a bound is given, the exact number is not on record here.

In assay [1] the target is T1, human adenosine A2a receptor (Homo sapiens, UniProt P29274).
T1 construct: expressed in transfected cells; host or cells: CHO-K1
Briefly: Adenosine A2a Receptor Functional Assay (A2AGAL2). In kind it is cell-based. As to conditions: CHO-K1 cells, cAMP inducible beta-galactosidase reporter, 15 nM NECA agonist challenge. As to the method:
(§1) To initiate the functional assay, cryopreserved CHO-K1 cells overexpressing the human adenosine A2a receptor and containing a cAMP inducible beta-galactosidase reporter gene were thawed, centrifuged, DMSO containing media removed, and then seeded with fresh culture media into clear 384-well tissue culture treated plates (BD #353961) at a concentration of 10K cells/well. Prior to assay, these plates were cultured for two days at 37° C., 5% CO2, 90% Rh. On the day of the functional assay, culture media was removed and replaced with 45 uL assay medium (Hams/F-12 Modified (Mediatech #10-080CV) supplemented w/0.1% BSA). Test compounds were diluted and 11 point curves created at a 1000× concentration in 100% DMSO. Immediately after addition of assay media to the cell plates, 50 nL of the appropriate test compound antagonist or agonist control curves were added to cell plates using a Cartesian Hummingbird. Compound curves were allowed to incubate at room temperature on cell plates for approximately 15 minutes before addition of a 15 nM NECA (Sigma E2387) agonist challenge (5 uL volume). A control curve of NECA, a DMSO/Media control, and a single dose of Forskolin (Sigma F3917) were also included on each plate. After additions, cell plates were allowed to incubate at 37° C., 5% CO2, 90% Rh for 5.5-6 hours. After incubation, media was removed, and cell plates were washed 1×50 uL with DPBS w/o Ca & Mg (Mediatech 21-031-CV). Into dry wells, 20 uL of 1× Reporter Lysis Buffer (Promega E3971 (diluted in dH2O from 5× stock)) was added to each well and plates frozen at −20° C. overnight. For β-galactosidase enzyme calorimetric assay, plates were thawed out at room temperature and 20 μL 2× assay buffer (Promega) was added to each well. Color was allowed to develop at 37° C., 5% CO2, 90% Rh for 1-1.5 h or until reasonable signal appeared. The calorimetric reaction was stopped with the addition of 60 μL/well 1M sodium carbonate. Plates were counted at 405 nm on a SpectraMax Microplate Reader (Molecular Devices). Data was analyzed in Microsoft Excel and IC/EC50 curves were fit using a standardized macro.

The target of assay [2] is T2, human adenosine A1 receptor (Homo sapiens, UniProt P30542).
T2 construct: expressed in transfected cells; host or cells: CHO-K1
T2 sequence (P30542 1-326): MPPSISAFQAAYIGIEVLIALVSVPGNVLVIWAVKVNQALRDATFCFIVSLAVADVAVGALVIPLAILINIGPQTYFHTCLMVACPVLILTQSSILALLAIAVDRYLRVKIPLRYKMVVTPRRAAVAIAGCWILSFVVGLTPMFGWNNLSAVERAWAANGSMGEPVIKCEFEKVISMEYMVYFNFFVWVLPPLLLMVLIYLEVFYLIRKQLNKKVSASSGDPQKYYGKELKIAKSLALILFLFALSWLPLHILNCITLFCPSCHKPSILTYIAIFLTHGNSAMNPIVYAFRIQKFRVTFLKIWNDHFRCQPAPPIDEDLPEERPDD
Briefly: Adenosine A1 Receptor Functional Assay (A1GAL2). In kind it is cell-based. As to conditions: CHO-K1 cells, cAMP inducible beta-galactosidase reporter, 4nM r-PIA/1 uM Forskolin agonist challenge. As to the method: as §1, with “A1” for “A2a”, “4nM r-PIA” for “15 nM NECA”, “P4532)/1 uM Forskolin (Sigma F3917)” for “E2387)”, “r-PIA in 1 uM Forskolin,” for “NECA,”, “Forskolin” for “Forskolin (Sigma F3917)”

T1 sequence (P29274 whole entry): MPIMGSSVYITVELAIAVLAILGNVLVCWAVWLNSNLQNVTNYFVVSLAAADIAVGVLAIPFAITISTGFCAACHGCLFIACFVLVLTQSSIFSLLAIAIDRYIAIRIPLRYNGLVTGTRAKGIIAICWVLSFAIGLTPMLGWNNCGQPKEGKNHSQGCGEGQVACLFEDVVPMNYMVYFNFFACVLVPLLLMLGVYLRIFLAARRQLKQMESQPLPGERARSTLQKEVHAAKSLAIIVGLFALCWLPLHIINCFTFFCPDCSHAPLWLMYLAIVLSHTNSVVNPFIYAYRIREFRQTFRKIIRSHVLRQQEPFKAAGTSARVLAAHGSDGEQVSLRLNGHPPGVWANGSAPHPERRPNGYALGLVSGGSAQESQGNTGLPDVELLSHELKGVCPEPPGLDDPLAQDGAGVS

Take `CCN1CCN(C(=O)c2cc3c(N)nc(-c4nc(C)cs4)nc3s2)CC1` [Example 18, [4-Amino-2-(4-methyl-thiazol-2-yl)-thieno[2,3-d]pyrimidin-6-yl]-(4-ethyl-piperazin-1-yl)-methanone hydrochloride]: the inhibition constant (Ki) – broadly, a measure of affinity in units of concentration, obtained from inhibition or displacement – in assay [1] was 195 nM; in assay [2], > 948 nM.
On to `N#Cc1cccc(-c2nc(N)c3cc(C(=O)NCCc4cccnc4)sc3n2)c1` [Example 16, 4-Amino-2-(3-cyano-phenyl)-thieno[2,3-d]pyrimidine-6-carboxylic acid(2-pyridin-3-yl-ethyl)-amide], for which the figures for the inhibition constant (Ki) in assay [1] and in assay [2] were 115 nM and 467 nM, respectively.
For the molecule `N#Cc1cccc(-c2nc(N)c3cc(C(=O)NCCN4CCOCC4)sc3n2)c1` [Example 10, 4-Amino-2-(3-cyano-phenyl)-thieno[2,3-d]pyrimidine-6-carboxylic acid(2-morpholin-4-yl-ethyl)-amide], the inhibitory constant (Ki) in assay [1] came to 34.7 nM; in assay [2], 52.6 nM.
With `Nc1nc(-c2ncco2)nc2sc(C(=O)NCc3ccccn3)cc12` [Example 24, 4-Amino-2-oxazol-2-yl-thieno[2,3-d]pyrimidine-6-carboxylic acid(pyridin-2-ylmethyl)-amide], the Ki in assay [1] turned out to be 137 nM; in assay [2], 422 nM.
Regarding `Cc1csc(-c2nc(N)c3cc(C(=O)N4CCN(c5nccs5)CC4)sc3n2)n1` [Example 33, [4-Amino-2-(4-methyl-thiazol-2-yl)-thieno[2,3-d]pyrimidin-6-yl]-(4-thiazol-2-yl-piperazin-1-yl)-methanone], the results for the Ki in assay [1] and in assay [2] were 81.9 nM and 978 nM, respectively.
As to `CC(C)c1ccc(-c2nc(N)c3cc(C(=O)N4CCOCC4)sc3n2)o1` [Example 30, [4-Amino-2-(5-isopropyl-furan-2-yl)-thieno[2,3-d]pyrimidin-6-yl]-morpholin-4-yl-methanone], the values for the Ki in assay [1] and in assay [2] were 236 nM and 522 nM, respectively.
Turning to `Nc1nc(-c2nc(C(F)(F)F)cs2)nc2sc(C(=O)N3CCOCC3)cc12` [Example 26, [4-Amino-2-(4-trifluoromethyl-thiazol-2-yl)-thieno[2,3-d]pyrimidin-6-yl]-morpholin-4-yl-methanone], the inhibitory constant (Ki) was 92.9 nM in assay [1] and > 1310 nM in assay [2].
For the molecule `CC(C)(C)N1CCN(C(=O)c2cc3c(N)nc(-c4cccc(C#N)c4)nc3s2)CC1` [Example 9, 3-[4-Amino-6-(4-tert-butyl-piperazine-1-carbonyl)-thieno[2,3-d]pyrimidin-2-yl]-benzonitrile], the Ki worked out at 94.2 nM in assay [1] and 603 nM in assay [2].
Turning to `Nc1nc(-c2ncco2)nc2sc(C(=O)N3CCOCC3)cc12` [Example 6, (4-Amino-2-oxazol-2-yl-thieno[2,3-d]pyrimidin-6-yl)-morpholin-4-yl-methanone], the Ki in assay [1] is 361 nM; in assay [2], > 10000 nM.
For the molecule `Nc1nc(-c2ccc(C3CC3)o2)nc2sc(C(=O)NCc3cccnc3)cc12` [Example 14, 4-Amino-2-(5-cyclopropyl-furan-2-yl)-thieno[2,3-d]pyrimidine-6-carboxylic acid(pyridin-3-ylmethyl)-amide], the inhibition constant Ki was 1550 nM in assay [1] and > 610 nM in assay [2].
The matching figures for `C[C@@H]1CN(C(=O)c2cc3c(N)nc(-c4cccc(C#N)c4)nc3s2)C[C@H](C)O1` [Example 1, 3-[4-Amino-6-(2,6-dimethyl-morpholine-4-carbonyl)-thieno[2,3-d]pyrimidin-2-yl]-benzonitrile]: 184 nM and 598 nM.
In the case of `Cc1cc(-c2nc(N)c3cc(C(=O)N4CCOCC4)sc3n2)no1` [Example 17, [4-Amino-2-(5-methyl-isoxazol-3-yl)-thieno[2,3-d]pyrimidin-6-yl]-morpholin-4-yl-methanone], the results for the Ki in assay [1] and in assay [2] were 528 nM and > 923 nM, respectively.
As to `Cc1csc(-c2nc(N)c3cc(C(=O)NCCN4CCS(=O)(=O)CC4)sc3n2)n1` [Example 7, 4-Amino-2-(4-methyl-thiazol-2-yl)-thieno[2,3-d]pyrimidine-6-carboxylic acid[2-(1,1-dioxo-1-thiomorpholin-4-yl)-ethyl]-amide], the Ki in assay [1] is 193 nM; in assay [2], ~927 nM.
